In ChEMBL document CHEMBL1255215, “Synthesis and selective anticancer activity of organochalcogen based redox catalysts” (J Med Chem, 2010):
Calls of active or inactive are those of the source. The rule behind the calls is not given here.

Assays:
[1] = test system: B-CLL; assay: Cytotoxicity against human B-CLL cells assessed as reduction in cell viability; type: functional, cell-based
[2] = test system: B-CLL; assay: Cytotoxicity against human B-CLL cells assessed as reduction in cell viability at 10 uM; type: functional, cell-based
[3] = test system: PBMC; assay: Cytotoxicity against human PBMC; type: cell-based
[4] = Cytotoxicity against human B-CLL cells assessed as reduction in cell viability at 1 uM relative to untreated control; type: functional
[5] = test system: B-CLL; assay: Induction of intracellular ROS level in human B-CLL cells by flow cytometry; type: functional, cell-based
[6] = test system: HUVEC; assay: Cytotoxicity against HUVEC at 1.25 uM; type: cell-based; settings: human
[7] = test system: K562; assay: Cytotoxicity against human K562 cells assessed as cell viability at 10 uM; type: functional; settings: read-out: Activity
[8] = Cytotoxicity against human B-CLL cells assessed as reduction in cell viability at 500 nM relative to untreated control; type: functional
[9] = Cytotoxicity against mouse NIH/3T3 cells at 1.25 uM; type: cell-based; settings: nih3t3, 1.25 µM
[10] = test system: PBMC; assay: Induction of intracellular ROS level in human PBMC cells by flow cytometry; type: functional, cell-based
[11] = test system: MCF7; assay: Cytotoxicity against human MCF7 cells at 0.3 uM; type: functional
[12] = test system: A549; assay: Cytotoxicity against human A549 cells at 0.3 uM; type: functional
[13] = test system: B-CLL; assay: Induction of apoptosis in human B-CLL cells assessed as caspase3 activation by […]; type: functional, cell-based
[14] = test system: A549; assay: Cytotoxicity against human A549 cells at 0.3 to 0.625 uM; type: functional
[15] = test system: MCF7; assay: Cytotoxicity against human MCF7 cells at 0.3 to 0.625 uM; type: functional
[16] = test system: HT-29; assay: Cytotoxicity against human HT-29 cells at 0.3 to 0.625 uM; type: functional
[17] = test system: PBMC; assay: Induction of apoptosis in human PBMC cells assessed as caspase3 activation by […]; type: functional, cell-based

For `O=C1C([Se]c2ccccc2)=C([Se]c2ccccc2)C(=O)c2c(O)ccc(O)c21`, the Activity [1] was “Active”, the Activity [2] was “Active” and the Activity [3] was “Toxic”.

For `O=C1C([Se]c2ccccc2)=C([Se]c2ccccc2)C(=O)c2ccccc21`, the Activity [1] was “Active” and the Activity [3] was “Non-toxic”.

For `CC1=C([Te]c2ccccc2)C(=O)c2ccccc2C1=O`, the Activity [1] was “Active”, the Ratio [4] was 5.03 and the Activity [5] was “Active”. For the same compound, the Activity [6] was < 50%, the viability at 10 µM [7] was 4.1% and the Ratio [8] was 3.17. The Activity [9] was < 50%, the Activity [10] was “inactive” and the Activity [11] was <50%. The Activity [12] was <50% and the Activity [3] was “Non-toxic”.

For `O=C1C([Te]c2ccccc2)=C([Te]c2ccccc2)C(=O)c2ccccc21`, the Activity [13] was “Active”, the Activity [1] was “Active” and the Activity [5] was “Active”. For the same compound, the Activity [6] was < 50%, the Activity [14] was <50% and the viability at 10 µM [7] was 15%. For the same compound, the Activity [15] was <50%, the Activity [9] was < 50% and the Activity [10] was “inactive”. The Activity [16] was <50%, the Activity [17] was “inactive” and the Activity [3] was “Non-toxic”.

`CCOC(C[Se]C1=C([Se]CC(OCC)OCC)C(=O)c2ccccc2C1=O)OCC` gave a viability at 10 µM [7] of 8.6%.

In the case of `CC1=C([Te]c2ccc(O)cc2)C(=O)c2ccccc2C1=O`, the Activity [1] is reported as “inactive” and the viability at 10 µM [7] is reported as 30%.

In the case of `O=C1C(Sc2ccccc2)=C(Sc2ccccc2)C(=O)c2ccccc21`, the Activity [1] is reported as “Active” and the Activity [2] is reported as “Active”.
